What was measured:
[1] = molecular target: epidermal growth factor receptor kinase; design: method as in PMID 30633509; details: dual epidermal growth factor receptor kinase and microtubule inhibitor; cited from earlier work
[2] = test system: A549 cells; experiment: MTT cytotoxicity assay, A549 cells; type: cell-based; details: Homo sapiens, 48 h, read-out: IC50 against A549
Procedure: (§1) The MTT method is often used to detect the cytotoxicity of compounds in vitro [64]. The cytotoxicity of 10a–10f was evaluated by MTT assay against BGC-823, BEL-7402, MCF-7, and A549 tumor cells. HL-7702 was selected to evaluate the safety of 10a–10f against human normal cells. 5-FU was also evaluated as a positive control. The well-grown cells were inoculated in 96-well plates at a density of 3000 cells/well and incubated in 37 °C for 24 h. The negative control group, blank control group, and administration group were set up. The cells were incubated with a gradient concentration (1.25, 2.5, 5, 10, and 20 μg/mL) of samples or 5-FU for 48 h. Then, 20 μL MTT solution (5 mg/mL) was added to each well. After the cells were incubated for 4 h, 150 μL DMSO was added to each well before testing. The absorbance was measured at 570 nm with a microplate reader. The inhibition rate and final IC50 values were calculated according to the following formula. The values shown are the average of at least three parallel trials. Inhibition rate (%) =1 − (ODsample − ODblank)/(ODnegative − ODblank) × 100%.

[3] = test system: BEL-7402 cells; experiment: MTT cytotoxicity assay, BEL-7402 cells; type: cell-based; details: Homo sapiens, 48 h, read-out: IC50 against BEL-7402
Procedure: as §1

[4] = test system: HL-7702 cells; experiment: MTT cytotoxicity assay, normal cells HL-7702; type: cell-based; details: L02, 48 h, normal human hepatocytes, read-out: IC50 against HL-7702
Procedure: as §1

[5] = test system: BGC-823 cells; experiment: MTT cytotoxicity assay, BGC-823 cells; type: cell-based; details: Homo sapiens, 48 h, read-out: IC50 against BGC-823
Procedure: as §1

[6] = test system: MCF-7 cells; experiment: MTT cytotoxicity assay, MCF-7 cells; type: cell-based; details: Homo sapiens, MCF7, 48 h, read-out: IC50 against MCF-7
Procedure: as §1

[7] = test system: CT-DNA; experiment: UV/Vis absorbance titration with CT-DNA; type: binding; details: hyperchromic effects at 205 nm and 260 nm, no wavelength shift
Procedure: The binding patterns of 10a and 10f with CT-DNA were measured by UV/Vis spectroscopy in Tris-HCl buffer (0.05 M Tris-HCl/0.1 M NaCl, pH 7.4). The stock solution concentrations of both 10a and 10f in DMSO were 10^−3 M. CT-DNA was dissolved in Tris-HCl buffer and stored at 4 °C for use. The stock solution concentration of CT-DNA was determined by UV/Vis absorbance at 260 nm with the extinction coefficient 6600 M^−1·cm^−1 [67]. Tris-HCl buffer was used as a blank to make preliminary adjustments. Absorbance titration experiments were performed at room temperature with the concentrations of 10a and 10f at 0.1 µM, varying the concentrations of CT-DNA (0.2, 0.4, 0.6, 0.8, and 1 µM). The solution was allowed to equilibrate for 2–3 h before measurement. UV/Vis absorption spectra were recorded in the range of 200–400 nm. The binding constant was calculated according to the following equation [54]: […]=[DNA]/(εb−εf)+1/Kb(εb−εf), where εa corresponds to the observed extinction coefficient (A/[DNA]), εf corresponds to the extinction coefficient of the free compound, and εb is the extinction coefficient of the compound when fully bound to CT-DNA. [DNA] is the concentration of CT-DNA added to the compound. The Kb values of 10a and 10f were calculated from the slope to intercept ratio, which was obtained by plotting a graph of [DNA]/(εa − εf) versus [DNA].

[8] = test system: BGC-823 cells; experiment: AO/EB double staining; type: cell-based, Human; details: BGC-823, 0.5 IC50, IC50, 1.5 IC50, 24 h
Procedure: AO (500 μL, 1 mg/mL) and EB (500 μL, 1 mg/mL) were mixed, and then 4 mL PBS was added to the above solution to form AO/EB dye […]. AO/EB dye (100 μL) was added to each well. After incubating for 3–5 min and washing twice with cold PBS, BGC-823 cells were observed immediately under an inverted fluorescence microscope.

[9] = test system: CT-DNA; experiment: Circular dichroism spectra of CT-DNA; type: binding; details: CT-DNA 600 μM, compound 100 μM, Tris-HCl pH 7.4
Procedure: The CD spectra of CT-DNA in the absence and presence of 10a or 10f were measured after equilibrating for 1 h in a 1 mm diameter quartz colorimeter at room temperature. The concentration of CT-DNA was fixed at 600 μM in each sample. Both 10a and 10f were added to the above CT-DNA solution at a concentration of 100 μM, respectively. The scanning speed was 200 nm/min. The spectra were scanned on an average of six times in the range of 200–400 nm. All measurements were performed in 0.05 M Tris-HCl buffer (pH 7.4).

[10] = test system: BGC-823 cells; experiment: ROS detection (DCFH-DA) by flow cytometry; type: cell-based, Human; details: 24 h
Procedure: According to the instructions of ROS Detection Kit (Solarbio, Beijing, China), in situ probe loading was adopted. ROS intensity changes were determined by inverted fluorescence microscopy and flow cytometry. The whole experiment was carried out under dark conditions.

[11] = test system: DNA; design: method as in PMID 3427013; details: classical intercalator; cited from earlier work

For COc1cc(Nc2ncnc3cc(-c4ccc(C)cc4)sc23)cc(OC)c1OC [Compound 2], the IC50 [1] is listed as 0.03 µM.
In the case of O=c1[nH]cc(F)c(=O)[nH]1 [Compound 5-FU, 5-fluorouracil, reference compound], the IC50 [2] is reported as 11.8 ± 0.89 µM, the IC50 [3] is reported as 15.81 ± 0.01 µM and the IC50 [4] is reported as 20.83 ± 0.05 µM. It also gave an IC50 [5] of 15.18 ± 0.05 µM and an IC50 [6] of 11.3 ± 0.78 µM.
With Brc1cccc(/C=N/Nc2cc(N/N=C/c3cccc(Br)n3)ncn2)n1 [Compound 10a, 4,6-Bis(2-((E)-(6-bromopyridin-2-yl)methylene)hydrazinyl)pyrimidine] the IC50 [2] was 26.96 ± 0.14 µM, the “interaction mode with DNA (absorption spectra)” value [7] was “groove binding and partial intercalation” and the “apoptosis by AO/EB double staining (morphology)” value [8] was “induce apoptosis of BGC-823 cells in a dose-dependent manner”. For the same molecule, the IC50 [3] was 6.7 ± 0.4 µM, the IC50 [4] was > 100 µM and the “change of positive (279 nm) and negative (247 nm) CD bands of CT-DNA” value [9] was “decreased in intensity”. The IC50 [5] was 9 ± 0.6 µM and the IC50 [6] was 22.93 ± 0.16 µM.
Molecule C(=N\Nc1cc(N/N=C/c2ccccn2)ncn1)/c1ccccn1 [Compound 10b, 4,6-Bis(2-((E)-pyridin-2-ylmethylene)hydrazinyl)pyrimidine] has an IC50 [2] of 27.3 ± 0.86 µM, an IC50 [3] of 15 ± 2 µM and an IC50 [4] of 38.4 ± 0.58 µM. The IC50 [5] was 20.9 ± 0.82 µM and the IC50 [6] was 39.8 ± 1.18 µM.
Cc1cccc(/C=N/Nc2cc(N/N=C/c3cccc(C)n3)ncn2)n1 [Compound 10c, 4,6-Bis(2-((E)-(6-methylpyridin-2-yl)methylene)hydrazinyl)pyrimidine] gave an IC50 [2] of 37.3 ± 2.3 µM, an IC50 [3] of 29.5 ± 0.61 µM and an IC50 [4] of 60.51 ± 0.21 µM. The IC50 [5] was 26.21 ± 0.1 µM and the IC50 [6] was 24 ± 0.43 µM.
In the case of Brc1cccc(/C=N/Nc2cc(N/N=C/c3cccc(Br)n3)nc(-c3ccccc3)n2)n1 [Compound 10d, 4,6-Bis(2-((E)-(6-bromopyridin-2-yl)methylene)hydrazinyl)-2-phenylpyrimidine], the IC50 [2] is reported as 47.1 ± 0.8 µM, the IC50 [3] is reported as 22.5 ± 2.83 µM and the IC50 [4] is reported as > 100 µM. The IC50 [5] was 20.8 ± 2.69 µM and the IC50 [6] was 27.6 ± 0.45 µM.
With C(=N\Nc1cc(N/N=C/c2ccccn2)nc(-c2ccccc2)n1)/c1ccccn1 [Compound 10e, 4,6-Bis(2-((E)-pyridin-2-ylmethylene)hydrazinyl)-2-phenylpyrimidine] the IC50 [2] was 30.3 ± 0.65 µM, the IC50 [3] was 20.2 ± 1.43 µM and the IC50 [4] was > 100 µM. It also gave an IC50 [5] of 17.7 ± 0.24 µM and an IC50 [6] of 15.7 ± 2 µM.
In the case of Cc1cccc(/C=N/Nc2cc(N/N=C/c3cccc(C)n3)nc(-c3ccccc3)n2)n1 [Compound 10f, 4,6-Bis(2-((E)-(6-methylpyridin-2-yl)methylene)hydrazinyl)-2-phenylpyrimidine], the IC50 [2] is reported as 37.7 ± 1.37 µM, the “interaction mode with DNA (absorption spectra)” value [7] is reported as “groove binding and partial intercalation” and the “apoptosis by AO/EB double staining (morphology)” value [8] is reported as “induce apoptosis of BGC-823 cells in a dose-dependent manner”. For the same molecule, the IC50 [3] was 7.66 ± 0.55 µM, the “ROS fluorescence intensity (DCF)” value ([10]; BGC-823, 4 μM) was 27.6 and the “ROS fluorescence intensity (DCF)” value ([10]; BGC-823, 8 μM) was 32.2. The IC50 [4] was > 100 µM, the “change of positive (279 nm) and negative (247 nm) CD bands of CT-DNA” value [9] was “decreased in intensity” and the IC50 [5] was 7.89 ± 0.78 µM. For the same molecule, the IC50 [6] was 10.6 ± 0.14 µM.
In the case of CC[n+]1c(-c2ccccc2)c2cc(N)ccc2c2ccc(N)cc21 [EB, Ethidium bromide], the “binding constant with DNA” value [11] is given as ~10^7 M^−1.

Source: publication PMC9822369, “Synthesis, Biological Evaluation, DNA Binding, and Molecular Docking of Hybrid 4,6-Dihydrazone Pyrimidine Derivatives as Antitumor Agents” (Molecules, 2022)
